Test results taken from the supplement of paper PMC4862054.

What was measured:
CAL-148 [1] = settings: 72 h
Procedure, shortened: (§1)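 The reported EC50 was fitted from percent-inhibition dose-response curves and censored at the highest concentration. Breast cancer cell lines (20 µl suspension) were added to 384-well plates containing compound in 5 µl medium and incubated 72 h, and viability was read with 2.5 µl CellTiter-Blue over 2 h at 37 °C at 560/590 nm. Each plate was normalised to vehicle and a positive kill control and checked by Z'-factor, and rows with zero drug sensitivity score were dropped.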

CAL-51 [2] = settings: 72 h
Procedure, shortened: as §1

BT-474 = test: drug sensitivity score (DSS), CellTiter-Blue viability (DSS (AUC-based score)); higher = stronger viability inhibition; extreme values may be limits of the assay; settings: incubation time: 72 h
Procedure: (§2)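 DSRT with the CellTiter-Blue (resazurin reduction) viability readout, fluorescence 560/590 nm, 72 h incubation. Plates were normalised to DMSO and benzethonium chloride controls. DSS is computed from the area under the fitted dose-response curve (5 or 9 concentrations).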

CAL-51 [3] = test: as above; settings: incubation time: 72 h
Procedure: as §2

DU-4475 [4] = test: as above; settings: incubation time: 72 h
Procedure: as §2

HCC1599 = test: as above; settings: incubation time: 72 h
Procedure: as §2

Hs578T [5] = test: as above; settings: incubation time: 72 h
Procedure: as §2

HCC1937 = test: drug sensitivity score (DSS), CellTox Green (DSS (AUC-based score)); higher = stronger drug effect (viability inhibition or cytotoxicity); extreme values may be limits of the assay; settings: incubation time: 72 h
Procedure, shortened: (§3)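 Breast cancer cells were seeded into 384-well plates containing compound at 5 concentrations in 10-fold steps over a compound-specific 10,000-fold range and incubated 72 h. After CellTox Green and CellTiter-Glo readings, each plate was normalised to 0.1 % DMSO and a positive kill control. The drug sensitivity score rests on the area under the fitted dose-response curve.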

MDA-MB-231 = test: as above; settings: incubation time: 72 h
Procedure, shortened: as §3

MDA-MB-468 = settings: 72 h
Procedure, shortened: (§4)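 Seeding of breast cancer cell lines (20 µl suspension) was done into 384-well plates pre-loaded with compound at 5 concentrations, 10-fold apart, covering a compound-specific 10,000-fold range. The plates were incubated for 72 h, read for CellTox Green fluorescence (485/520 nm), and then read for CellTiter-Glo luminescence after 10 min at room temperature. Every plate was normalised to 0.1 % DMSO and a positive kill control. Curve fitting gave the EC50, censored at the top concentration.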

Hs578T [6] = test: drug sensitivity score (DSS), CellTox Green (DSS (AUC-based score)); higher = stronger drug effect (viability inhibition or cytotoxicity); extreme values may be limits of the assay; settings: incubation time: 72 h
Procedure, shortened: as §3

CAL-120 = settings: 72 h
Procedure, shortened: as §4

CAL-148 [7] = test: normalised viability (% of control), CellTiter-Blue; higher = more viable cells (about 100 = DMSO control); settings: incubation time: 72 h
Procedure: (§5)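 DSRT, CellTiter-Blue viability, 72 h incubation. Signal is normalised to DMSO and benzethonium chloride controls. Value is the normalised response at dose 9.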

CAL-51 [8] = test: as above; settings: incubation time: 72 h
Procedure: as §5

CAL-85-1 = test: as above; settings: incubation time: 72 h
Procedure: as §5

DU-4475 [9] = test: as above; settings: incubation time: 72 h
Procedure: as §5

HDQ-P1 = test: as above; settings: incubation time: 72 h
Procedure: as §5

MDA-MB-453 = test: as above; settings: incubation time: 72 h
Procedure: as §5

SMILES	EC50, CellTiter-Blue viability (CAL-148 [1])	EC50, CellTiter-Blue viability (CAL-51 [2])	drug sensitivity score (BT-474)	drug sensitivity score (CAL-51 [3])	drug sensitivity score (DU-4475 [4])	drug sensitivity score (HCC1599)	drug sensitivity score (Hs578T [5])	drug sensitivity score (HCC1937)	drug sensitivity score (MDA-MB-231)	EC50, CellTiter-Glo (MDA-MB-468)	drug sensitivity score (Hs578T [6])	EC50, CellTiter-Glo (CAL-120)	normalised viability (CAL-148 [7])	normalised viability (CAL-51 [8])	normalised viability (CAL-85-1)	normalised viability (DU-4475 [9])	normalised viability (HDQ-P1)	normalised viability (MDA-MB-453)
CN1CCC(COc2cnc(-c3cccc(Cn4nc(-c5cccc(C#N)c5)ccc4=O)c3)nc2)CC1	5800 nM	4990 nM	3.92	3.38	2.66	0	0	0	0									
CN(C)C/C=C/C(=O)Nc1cc2c(Nc3ccc(F)c(Cl)c3)ncnc2cc1O[C@H]1CCOC1 [Afatinib]	65 nM	4750 nM	23.5	1.9	0	0	4.14	1.72	0	158 nM	1.68							
COc1cc(Nc2ncc3c(n2)-c2ccc(Cl)cc2C(c2c(F)cccc2OC)=NC3)ccc1C(=O)O [Alisertib]								1.76	8.87	26.9 nM	0	338 nM						
CN1CC[C@H](c2c(O)cc(O)c3c(=O)cc(-c4ccccc4Cl)oc23)[C@H](O)C1 [Alvocidib]	125 nM	185 nM	14.5	19.9	22.4	17.4	22.8	0	16.5	261 nM	8.33	167 nM						
Nc1nc(Cl)nc2c1ncn2[C@H]1C[C@H](O)[C@@H](CO)O1 [Cladribine]	> 1000 nM	> 1000 nM	0	0.39	1.23	0	0	0	0.0524	> 1000 nM	0	445 nM						
Nc1ccn([C@@H]2O[C@H](CO)[C@@H](O)[C@@H]2O)c(=O)n1 [Cytarabine]	32.3 nM	266 nM	0	15.4	12.3	3	11.6	0	0	618 nM	0	> 10000 nM						
Cc1c2oc3c(C)ccc(C(=O)N[C@@H]4C(=O)N[C@H](C(C)C)C(=O)N5CCC[C@H]5C(=O)N(C)CC(=O)N(C)[C@@H](C(C)C)C(=O)O[C@@H]4C)c3nc-2c(C(=O)N[C@@H]2C(=O)N[C@H](C(C)C)C(=O)N3CCC[C@H]3C(=O)N(C)CC(=O)N(C)[C@@H](C(C)C)C(=O)O[C@@H]2C)c(N)c1=O [Dactinomycin]	0.76 nM	2.72 nM	17.7	29.7	38.4	20.8	33.6	0	20.5	1.54 nM	12.5	10.2 nM						
COc1cccc2c1C(=O)c1c(O)c3c(c(O)c1C2=O)C[C@@](O)(C(=O)CO)C[C@@H]3O[C@H]1C[C@H](N)[C@H](O)[C@H](C)O1 [Doxorubicin]	53.3 nM	164 nM	4.12	8.73	12.9	3.59	9.11	0	0	139 nM	0	872 nM						
Cc1ccc(F)c(NC(=O)Nc2ccc(-c3cccc4[nH]nc(N)c34)cc2)c1 [Linifanib]			0	0	0	0	0	0	0		0							
COc1cc(Nc2ncc3c(n2)-c2ccc(Cl)cc2C(c2c(F)cccc2OC)=NC3)ccc1C(=O)O [MLN8237]	184 nM	111 nM	4.4	18.1	22.9	2.39	14.7											
S=c1[nH]cnc2nc[nH]c12 [Mercaptopurine]		3810 nM	0	0.87	0	0	0	0	0		0	4710 nM						
Clc1ccc(C(c2ccccc2Cl)C(Cl)Cl)cc1 (centres undefined) [Mitotane]			0	0	0	0	0	1.4			0							
CCN1CCN(c2ccc(Nc3cc(N(C)C(=O)Nc4c(Cl)c(OC)cc(OC)c4Cl)ncn3)cc2)CC1 [NVP-BGJ398]								0	2.84		0	252 nM						
COc1cccc2cc(-c3nc([C@H]4CC[C@H](C(=O)O)CC4)n4ncnc(N)c34)[nH]c12 [OSI-027]	1640 nM	1580 nM	9.76	9.33	6.08	5.99	9.33	0	0	4990 nM	0	3850 nM						
OC[C@H]1O[C@@H](n2cnc3c2N=CNC[C@H]3O)C[C@@H]1O [Pentostatin]			0	0	0	0	0	0	0		0							
N#CC[C@H](C1CCCC1)n1cc(-c2ncnc3[nH]ccc23)cn1 [Ruxolitinib]			0	0	0	0	0		0	> 10000 nM	0	1670 nM						
C=CC[C@@H]1/C=C(\C)C[C@H](C)C[C@H](OC)[C@H]2O[C@@](O)(C(=O)C(=O)N3CCCC[C@H]3C(=O)O[C@H](/C(C)=C/[C@@H]3CC[C@@H](O)[C@H](OC)C3)[C@H](C)[C@@H](O)CC1=O)[C@H](C)C[C@@H]2OC [Tacrolimus]			0	0	0	0	0	0	2.92		0							
C=CCNC1=C2C[C@@H](C)C[C@H](OC)[C@H](O)[C@@H](C)/C=C(\C)[C@H](OC(N)=O)[C@@H](OC)/C=C\C=C(/C)C(=O)NC(=CC1=O)C2=O [Tanespimycin]	65.9 nM	269 nM	21.3	16.9	28.2	16.3	20.5	0	25.3	532 nM	1.53	269 nM						
C=CCNC1=C2C[C@@H](C)C[C@H](OC)[C@H](O)[C@@H](C)/C=C(\C)[C@H](OC(N)=O)[C@@H](OC)/C=C\C=C(/C)C(=O)NC(=CC1=O)C2=O [Tanespimycin] (10000 nM)													9.8%	4.68%	21.8%	-0.27%	24.8%	3.61%
CO[C@H]1C[C@@H]2CC[C@@H](C)[C@@](O)(O2)C(=O)C(=O)N2CCCC[C@H]2C(=O)O[C@H]([C@H](C)C[C@@H]2CC[C@@H](OC(=O)C(C)(CO)CO)[C@H](OC)C2)CC(=O)[C@H](C)/C=C(\C)[C@@H](O)[C@@H](OC)C(=O)[C@H](C)C[C@H](C)/C=C/C=C/C=C/1C [Temsirolimus]	0.47 nM	1.36 nM	12.1	22.2	15.7	0	17.3	0	0	0.15 nM	22.6	1.08 nM						
C[C@]1(c2nc3c(C(N)=O)cccc3[nH]2)CCCN1 [Veliparib]			0	0	0	0	0	0	0		0							
C[C@]1(c2nc3c(C(N)=O)cccc3[nH]2)CCCN1 [Veliparib] (10000 nM)													94.9%	94.7%	78.9%	81%	93.2%	94.9%
CC[C@]1(O)C[C@@H]2CN(CCc3c([nH]c4ccccc34)[C@@](C(=O)OC)(c3cc4c(cc3OC)N(C)[C@H]3[C@@](O)(C(=O)OC)[C@H](OC(C)=O)[C@]5(CC)C=CCN6CC[C@]43[C@@H]65)C2)C1 [Vinblastine]	13.2 nM	26.5 nM	21.8	16.1	13.7	7.99	30.7	0	17	2.95 nM	21.4	2.04 nM						
CC[C@]1(O)C[C@@H]2CN(CCc3c([nH]c4ccccc34)[C@@](C(=O)OC)(c3cc4c(cc3OC)N(C)[C@H]3[C@@](O)(C(=O)OC)[C@H](OC(C)=O)[C@]5(CC)C=CCN6CC[C@]43[C@@H]65)C2)C1 [Vinblastine] (1000 nM)													22.7%	11.4%	44.6%	7.08%	39.6%	36.3%
CS(=O)(=O)c1ccc(C(=O)Nc2ccc(Cl)c(-c3ccccn3)c2)c(Cl)c1 [Vismodegib]			0	0	0	0	0	0	0		1.09							
CS(=O)(=O)c1ccc(C(=O)Nc2ccc(Cl)c(-c3ccccn3)c2)c(Cl)c1 [Vismodegib] (10000 nM)													81.6%	109%	104%	123%	89.3%	86.5%
